According to patent US7892549B2, “Treatment with anti-ErbB2 antibodies” (Genentech, Inc., priority 1997, dated 2011):

Tested on: metastatic breast cancer with overexpression of the ErbB2 (HER2) oncogene
Assay: Randomized clinical study of chemotherapy with or without HERCEPTIN in patients
Format: in vivo, human

syndrome of myocardial dysfunction similar to that observed with anthracyclines (Grade ¾): 0%
Structure (SMILES): CC(=O)O[C@H]1C(=O)[C@@]2(C)[C@H]([C@H](OC(=O)c3ccccc3)[C@]3(O)C[C@H](OC(=O)[C@H](O)[C@@H](NC(=O)c4ccccc4)c4ccccc4)C(C)=C1C3(C)C)[C@]1(OC(C)=O)CO[C@@H]1C[C@@H]2O [T, paclitaxel]
AE(%), overall severe adverse events (median follow-up 10.5 months): 59%
